Test results: the supplement of paper PMC13380429

Experiments:
Calu-3 [1] = assay: drug sensitivity score (DSS) for viability; higher = more toxic; extreme values may be limits of the assay; settings: 72 h
Caco-2 [2] = assay: as above; settings: 72 h
HepG2 [3] = assay: as above; settings: 72 h
Vero E6 [4] = assay: as above; settings: 72 h
[5] = test system: A549-ACE2 infected with SARS-CoV-2; assay: SARS-CoV-2 infection rate relative to DMSO; higher = more infection; settings: 24 h
[6] = test system: A549-ACE2 infected with SARS-CoV-2; assay: cell count relative to DMSO; higher = less toxic; settings: 24 h
Calu-3 [7] = assay: cell viability relative to DMSO; higher = less toxic; settings: 72 h
Caco-2 [8] = assay: as above; settings: 72 h
HepG2 [9] = assay: as above; settings: 72 h
Vero E6 [10] = assay: as above; settings: 72 h
[11] = test system: A549-ACE2 infected with SARS-CoV-2; assay: morphology score (similarity to uninfected cells); higher = more like uninfected cells; settings: 24 h
A549-ACE2 [12] = assay: phospholipidosis EC50; higher = less potent phospholipidosis inducer
A549-ACE2 [13] = assay: drug-induced phospholipidosis relative to tamoxifen; higher = more phospholipidosis
Calu-3 [14] = assay: relative viability EC50 (midpoint between 100% and the lowest measured viability); higher = less toxic; settings: 72 h
Caco-2 [15] = assay: as above; settings: 72 h
HepG2 [16] = assay: as above; settings: 72 h
Vero E6 [17] = assay: as above; settings: 72 h
U2OS [18] = assay: drug sensitivity score (DSS) for viability; higher = more toxic; extreme values may be limits of the assay; settings: 72 h
U2OS [19] = assay: cell viability relative to DMSO; higher = less toxic; settings: 72 h
U2OS [20] = assay: relative viability EC50 (midpoint between 100% and the lowest measured viability); higher = less toxic; settings: 72 h

CNCC[C@H](Oc1cccc2ccccc12)c1cccs1 [duloxetine]
Settings | drug sensitivity score | relative viability EC50 [µM]
Caco-2 [2] | 0 | –
Caco-2 [15] | – | > 10
Calu-3 [1] | 1.3 | –
Calu-3 [14] | – | > 10
HepG2 [3] | 0 | –
HepG2 [16] | – | > 10
Vero E6 [4] | 0 | –
Vero E6 [17] | – | > 10

Settings | SARS-CoV-2 infection rate [%] | cell count [%] | cell viability [%] | morphology score | phospholipidosis EC50 [µM]
A549-ACE2 [12], 24 h | – | – | – | – | 9.15
A549-ACE2 [12], 48 h | – | – | – | – | 9.16
A549-ACE2 [12], 72 h | – | – | – | – | 15.6
Caco-2 [8], 1 nM | – | – | 110 | – | –
Caco-2 [8], 10 nM | – | – | 100 | – | –
Caco-2 [8], 100 nM | – | – | 97.7 | – | –
Caco-2 [8], 1000 nM | – | – | 111 | – | –
Caco-2 [8], 10000 nM | – | – | 95.9 | – | –
Calu-3 [7], 1 nM | – | – | 103 | – | –
Calu-3 [7], 10 nM | – | – | 97.1 | – | –
Calu-3 [7], 100 nM | – | – | 92.4 | – | –
Calu-3 [7], 1000 nM | – | – | 90.9 | – | –
Calu-3 [7], 10000 nM | – | – | 78.8 | – | –
HepG2 [9], 1 nM | – | – | 96 | – | –
HepG2 [9], 10 nM | – | – | 102 | – | –
HepG2 [9], 100 nM | – | – | 99.4 | – | –
HepG2 [9], 1000 nM | – | – | 101 | – | –
HepG2 [9], 10000 nM | – | – | 88.2 | – | –
Vero E6 [10], 1 nM | – | – | 106 | – | –
Vero E6 [10], 10 nM | – | – | 100 | – | –
Vero E6 [10], 100 nM | – | – | 101 | – | –
Vero E6 [10], 1000 nM | – | – | 93.7 | – | –
Vero E6 [10], 10000 nM | – | – | 91 | – | –
[5], 0.3 µM | 104 | – | – | – | –
[5], 3 µM | 94 | – | – | – | –
[5], 10 µM | 37 | – | – | – | –
[5], 30 µM | 9 | – | – | – | –
[6], 0.3 µM | – | 101 | – | – | –
[6], 3 µM | – | 100 | – | – | –
[6], 10 µM | – | 119 | – | – | –
[6], 30 µM | – | 119 | – | – | –
[11], 0.3 µM | – | – | – | 0.09 | –
[11], 3 µM | – | – | – | 0.1 | –
[11], 10 µM | – | – | – | 0.8 | –
[11], 30 µM | – | – | – | 0.78 | –

drug-induced phospholipidosis [%], A549-ACE2 [13]
Settings | 0.3 µM | 0.833333 µM | 3.33333 µM | 6.66667 µM | 10 µM | 30 µM
24 h | 3.9 | 1.59 | 17.6 | 53.6 | 65.6 | 111
48 h | 2.99 | -2.35 | 15.6 | 55.1 | 61.6 | 109
72 h | 5.95 | 2.92 | 12.5 | 44.6 | 51.8 | 110

CC(NCCC(c1ccccc1)c1ccccc1)c1ccccc1 (stereo not given) [fendiline]
Settings | drug sensitivity score | relative viability EC50 [µM]
Caco-2 [2] | 1.7 | –
Calu-3 [1] | 2.6 | –
Calu-3 [14] | – | 3.42
HepG2 [3] | 2.2 | –
U2OS [18] | 0.3 | –
U2OS [20] | – | > 10
Vero E6 [4] | 0 | –
Vero E6 [17] | – | > 10

Settings | SARS-CoV-2 infection rate [%] | cell count [%] | cell viability [%] | morphology score | phospholipidosis EC50 [µM]
A549-ACE2 [12], 24 h | – | – | – | – | 4.59
A549-ACE2 [12], 48 h | – | – | – | – | 6.53
A549-ACE2 [12], 72 h | – | – | – | – | 6.61
Caco-2 [8], 1 nM | – | – | 97.6 | – | –
Caco-2 [8], 10 nM | – | – | 99.8 | – | –
Caco-2 [8], 100 nM | – | – | 93.9 | – | –
Caco-2 [8], 1000 nM | – | – | 98.1 | – | –
Caco-2 [8], 10000 nM | – | – | 67.6 | – | –
Calu-3 [7], 1 nM | – | – | 91.6 | – | –
Calu-3 [7], 10 nM | – | – | 96.3 | – | –
Calu-3 [7], 100 nM | – | – | 103 | – | –
Calu-3 [7], 1000 nM | – | – | 102 | – | –
Calu-3 [7], 10000 nM | – | – | 46.7 | – | –
HepG2 [9], 1 nM | – | – | 110 | – | –
HepG2 [9], 10 nM | – | – | 97.8 | – | –
HepG2 [9], 100 nM | – | – | 102 | – | –
HepG2 [9], 1000 nM | – | – | 94.2 | – | –
HepG2 [9], 10000 nM | – | – | 70.1 | – | –
U2OS [19], 1 nM | – | – | 99.2 | – | –
U2OS [19], 10 nM | – | – | 106 | – | –
U2OS [19], 100 nM | – | – | 93.1 | – | –
U2OS [19], 1000 nM | – | – | 99.6 | – | –
U2OS [19], 10000 nM | – | – | 84.2 | – | –
Vero E6 [10], 1 nM | – | – | 96.5 | – | –
Vero E6 [10], 10 nM | – | – | 98.6 | – | –
Vero E6 [10], 100 nM | – | – | 97.5 | – | –
Vero E6 [10], 1000 nM | – | – | 99.4 | – | –
Vero E6 [10], 10000 nM | – | – | 88.9 | – | –
[5], 0.3 µM | 100 | – | – | – | –
[5], 3 µM | 47 | – | – | – | –
[5], 10 µM | 13 | – | – | – | –
[5], 30 µM | 45 | – | – | – | –
[6], 0.3 µM | – | 98 | – | – | –
[6], 3 µM | – | 110 | – | – | –
[6], 10 µM | – | 119 | – | – | –
[6], 30 µM | – | 43 | – | – | –
[11], 0.3 µM | – | – | – | -0.14 | –
[11], 3 µM | – | – | – | 0.77 | –
[11], 10 µM | – | – | – | 0.9 | –
[11], 30 µM | – | – | – | 0.08 | –

drug-induced phospholipidosis [%], A549-ACE2 [13]
Settings | 0.3 µM | 0.833333 µM | 3.33333 µM | 6.66667 µM | 10 µM | 30 µM
24 h | 3.14 | 1.17 | 27.5 | 62.8 | 85 | 85.8
48 h | 2.47 | 2.24 | 19.7 | 62.3 | 88.8 | –
72 h | 1.95 | -3.79 | 18.1 | 60.3 | 87.3 | –
